Measurements: patent US12383499B2, “Scale up synthesis of silicasome nanocarriers” (The Regents of the University of California, priority 2018, dated 2025)
Counter-ions that a name gives are not always drawn.

Experiments:
[1] = test system: orthotopic KPC-derived PDAC tumor; experiment: Efficacy and survival in the orthotopic KPC-derived PDAC model; assay type: in vivo, B6/129SF1/J mice; settings: 40 mg/kg twice per week, three IV administrations, n=3
[2] = Toxicity study (bone marrow, GI tract, liver, body weight); assay type: in vivo, C57BL/6 mice; settings: 24 h after 4 IV injections of 40 mg/kg irinotecan
Excerpt: Irinotecan exerts major systemic toxicological effects (e.g., neutropenia and diarrhea) when used as a free drug monotherapy or in combination with 5-FU (i.e., FOLFIRI regimen) in CRC (Cunningham et al. (1998) The Lancet, 352, 1413-1418; Rougier et al. (1998) The Lancet, 352: 1407-1412; Saltz et al. (2000) N. Engl. J Med. 343: 905-914). This constitutes one of the principal reasons for considering encapsulated irinotecan delivery. […] The possibility of acute myelosuppression effects was assessed by the collection of whole blood 24 h after the last IV injection, as well as looking at bone marrow cellularity (Id.). […] The visual appearance was confirmed by computer software that semi-quantitatively scored the total marrow cellularity and hematopoietic nuclei in the histology images (FIG. 13, panel A) (Travlos (2006) Toxicol. Pathol. 34: 548-565). […]
To compare the toxicity of different irinotecan formulations, a toxicity study was performed in healthy female C57BL/6 mice using a published protocol (Iusuf et al. (2014) Mol. Cancer Ther. 13: 492-503). […] H&E staining to assess bone marrow and hematopoietic cellularity in the sternum was analyzed by Aperio ImageScope software (Travlos (2006) Toxicol. Pathol. 34: 548-565).

KPC cells = experiment: MTS cytotoxicity assay, KPC cells; assay type: cell-based, murine; settings: KPC pancreatic cancer cells
Experimental: (§1) The cytotoxicity of purified MSNPs was assessed in a standard MTS assay (CellTiter 96® AQueous One Solution Cell Proliferation Assay, Promega). KPC or MC38 cells were plated at a density of 5×10^3 cells per well in a 96-well plate and cultured for 24 hr. The medium was replaced with fresh medium containing the different NPs at the indicated concentrations. Non-treated cells were used as control. After a 48 hr treatment, the medium was replaced with 100 μL fresh medium containing MTS solution (5:1, v/v medium/CellTiter 96® Aqueous stock solution) for further culture at 37° C. for 1 hr. The absorbance of the culture wells at 490 nm was directly recorded by a microplate reader (M5e, Molecular Device, USA). Wells without cells but contained the same MTS solution were used as blank. The relative cell viability (%) is [(the absorption of treated well−blank)/(the absorption of control well−blank)]×100.

orthotopic MC38 tumor = experiment: Efficacy and survival in the orthotopic MC38 tumor chunk colon cancer model; assay type: in vivo, C57BL/6 mice
MC38 cells = experiment: MTS cytotoxicity assay, MC38 cells; assay type: cell-based, murine; settings: MC38 colon cancer cells
Experimental: as §1

non-metastatic PDAC = settings: cited from earlier work

Structure (SMILES) | primary tumor growth and metastasis (IVIS imaging) [1] | bone marrow cellularity / myelosuppressive effects (sternum H&E) [2] | neutrophil count / neutropenia (differential WBC counts) [2] | in vitro killing effect (MTS) (KPC cells) | tumor growth by IVIS bioluminescence imaging (orthotopic MC38 tumor; 40 mg/kg irinotecan equivalent IV twice per week, up to day 21, n=6) | survival (Kaplan-Meier, Log-rank) (orthotopic MC38 tumor; 40 mg/kg irinotecan equivalent IV twice per week, up to six administrations, n=6) | rate of apoptosis (cleaved caspase-3 IHC) in orthotopic tumors (orthotopic MC38 tumor; 24 h after the 4th IV injection, 40 mg/kg, n=3) | in vitro killing effect (MTS) (MC38 cells) | disease-free survival (non-metastatic PDAC)
CCc1c2c(nc3ccc(OC(=O)N4CCC(N5CCCCC5)CC4)cc13)-c1cc3c(c(=O)n1C2)COC(=O)[C@]3(O)CC [free irinotecan, Irinotecan hydrochloride trihydrate] | inefficient tumor inhibition | significant myelosuppressive effects | significant degree of neutropenia | most robust killing effect | no significant tumor growth inhibition | no significant survival benefit | ~2.5% | most robust killing effect | –
Nc1ccn([C@@H]2O[C@H](CO)[C@@H](O)C2(F)F)c(=O)n1 [gemcitabine] | – | – | – | – | – | – | – | – | 12.8 months
